# Read-outs that look alike come from different tables or passages of the source.
# Tests used:
# [1] = Pharmacokinetics in male Sprague Dawley rats (intravenous and oral); type: in vivo, rat; details: for bioavailability: male, Sprague Dawley, po, 10 mg/kg; for AUC: read-out: AUC 0-infinity_observed
# Method: Table 6 provides the pharmacokinetic parameters of Example (I) in male Sprague Dawley rats after a single bolus intravenous dose of 2 mg/kg. Table 7 provides the pharmacokinetic parameters of Example I in male Sprague Dawley rats after a single bolus oral dose of 10 mg/kg. In order to measure bioavailability in vivo, a compound may be administered to a test animal (e.g. mouse or rat) both intraperitoneally (i.p.) or intravenously (i.v.) and orally (p.o.) and blood samples are taken at regular intervals to examine how the plasma concentration of the drug varies over time. The time course of plasma concentration over time can be used to calculate the absolute bioavailability of the compound as a percentage using standard models. An example of a typical protocol is described below. […] The time-course of plasma or whole blood concentrations can then be used to derive key parameters such as the area under the plasma or blood concentration-time curve (AUC-which is directly proportional to the total amount of unchanged drug that reaches the systemic circulation), the maximum (peak) plasma or blood drug concentration, the time at which maximum plasma or blood drug concentration occurs (peak time), additional factors which are used in the accurate determination of bioavailability include: the compound's terminal half-life, total body clearance, steady-state volume of distribution and F %. These parameters are then analyzed by non-compartmental or compartmental methods to give a calculated percentage bioavailability, for an example of this type of method see Gallant-[…] et al, 2000 and […] et al, 1998, and references therein.
# [2] = at 30 days
# Source text: (§5) Tumor growth was monitored daily. […] Significance was set at p≤0.05.
# [3] = mouse, in vivo, ip
# Source text: as §5
# CHP-212 = experiment: OncoPanel cell proliferation assay, CHP-212; details: for Cell Count Activity Area / Relative cell count (%) Mean: CHP-212; for EC50 / GI50 / IC50: Homo sapiens; for EC50: CHP-212, read-out: Cell Count EC50; for GI50: CHP-212, read-out: Cell Count GI50; for IC50: CHP-212, read-out: Cell Count IC50
# Method: Cells were seeded into 384-well plates and incubated in a humidified atmosphere of 5% CO2 at 37° C. Compounds were added the day following cell seeding. At the same time, a time zero untreated cell plate was generated. After a 3-day incubation period, cells were fixed and stained to allow fluorescence imaging of nuclei. Compounds (1 mM stock solutions) were serially diluted in half-log steps from the highest test concentration (1 micromol), and assayed over 10 concentrations with a maximum assay concentration of 0.1% DMSO. Automated fluorescence microscopy was carried out using a Molecular Devices ImageXpress Micro XL high-content imager, and images were collected with a 4× objective. 16-bit TIFF images were acquired and analyzed with MetaXpress 5.1.0.41 software.
# GI50 is the concentration needed to reduce the observed growth by half (midway between the curve maximum and the time zero value). […] In rare instances, values <0 or >10 may be observed. […] Curve-fitting, calculations, and report generation was performed using a custom data reduction engine and MathIQ based software (AIM).
# 786-O = experiment: OncoPanel cell proliferation assay, 786-O; type: cell-based, human; details: for Relative cell count (%) Mean / EC50 / GI50 / IC50: 786-0; for Cell Count Activity Area / EC50 / GI50 / IC50: 786-O; for EC50 / GI50 / IC50: Homo sapiens; for EC50: read-out: Cell Count EC50; for GI50: read-out: Cell Count GI50; for IC50: read-out: Cell Count IC50
# Method: (§1) Cells were grown in RPMI 1640, 10% FBS, 2 mM L-alanyl-L-glutamine, 1 mM Na pyruvate, or a special medium. Cells were seeded into 384-well plates and incubated in a humidified atmosphere of 5% CO2 at 37° C. Compounds were added the day following cell seeding. At the same time, a time zero untreated cell plate was generated. After a 3-day incubation period, cells were fixed and stained to allow fluorescence imaging of nuclei. Compounds (1 mM stock solutions) were serially diluted in half-log steps from the highest test concentration ([…]), and assayed over 10 concentrations with a maximum assay concentration of 0.1% DMSO. Automated fluorescence microscopy was carried out using a Molecular Devices ImageXpress Micro XL high-content imager, and images were collected with a 4× objective. 16-bit TIFF images were acquired and analyzed with MetaXpress 5.1.0.41 software.
# (§2) Cell proliferation was measured by the fluorescence intensity of an incorporated nuclear dye. The output is referred to as the relative cell count, where the measured nuclear intensity is transformed to percent of control (POC) using the following formula: […]
# (§3) Cellular response parameters were calculated using nonlinear regression to a sigmoidal single-site dose response model:
# (§4) EC50 is the test compound concentration at the curve inflection point or half the effective response (parameter C of the fitted curve solution). GI50 is the concentration needed to reduce the observed growth by half (midway between the curve maximum and the time zero value). “Cell Count Activity Area” is an estimate of the integrated area above the curve (Barretina, et al. The Cancer Cell Line Encyclopedia enables predictive modelling of anticancer drug sensitivity. Nature 483: 603-607). […] In rare instances, values <0 or >10 may be observed. […] Curve-fitting, calculations, and report generation was performed using a custom data reduction engine and MathIQ based software (AIM).
# T24 = experiment: OncoPanel cell proliferation assay, T24; type: cell-based, human; details: for EC50 / GI50 / IC50: Homo sapiens; for EC50: T-24, read-out: Cell Count EC50; for GI50: T-24, read-out: Cell Count GI50; for IC50: T-24, read-out: Cell Count IC50
# Method: as §1, §2, §3, §4
# TORC1 = molecular target: T1, TORC1 (Homo sapiens, UniProt P42345+P62942); experiment: TORC1 inhibition in PC3 cells (Western blot, phospho-rpS6); type: cell-based
# T1 construct: endogenous in cells; host or cells: PC3 cells
# Method: Equal amounts of protein were resolved by SDS-PAGE and transferred to nitrocellulose membrane using the Invitrogen Nu-Page system. […] The following day, blots were washed 3 times in TBST, incubated for 2 hr with secondary antibodies (donkey anti rabbit hrp conjugated), and finally washed an additional 3 times in TBST. ECL Prime (Amersham) was used to detect the proteins of interest and ImageJ was used to quantify blots.
# [4] = male Sprague Dawley rats, single bolus intravenous dose of 2 mg/kg
# [5] = male Sprague Dawley rats, single bolus oral dose of 10 mg/kg
# [6] = rat, blood, male Sprague Dawley rats, single bolus intravenous dose of 2 mg/kg
# [7] = rat, blood, male Sprague Dawley rats, single bolus oral dose of 10 mg/kg
smiles,measurement,setting,value
"CO[C@H]1C[C@@H]2CC[C@@H](C)[C@@](O)(O2)C(=O)C(=O)N2CCCC[C@H]2C(=O)O[C@H]([C@H](C)C[C@H]2C[C@H]3C[C@@H]2C[C@@H]3O)CC(=O)[C@H](C)/C=C(\C)[C@@H](O)[C@@H](OC)C(=O)[C@H](C)C[C@H](C)/C=C/C=C/C=C/1C [Formula II, C37-[(1R,2S,4R,5S)-5-hyhroxybicyclo[2.2.1]heptane] rapamycin]",AUMC 0-inf_observed,[1]; [4],2358 ng/ml*h^2
same,Cl_obs,[1]; [4],0.0026 (mg/kg)/(ng/ml)/h
same,Lambda_z,[1]; [4],0.270 h⁻¹
same,Vss_obs,[1]; [4],0.00797 (mg/kg)/(ng/ml)
same,Vz_obs,[1]; [4],0.00963 (mg/kg)/(ng/ml)
same,AUMC 0-inf_obs,[1]; [5],13410 ng/ml*h^2
same,Cl/F_obs,[1]; [5],0.0055 (mg/kg)/(ng/ml)/h
same,Lambda_z,[1]; [5],0.127 h⁻¹
same,Tlag,[1]; [5],0 h
same,Vz/F_obs,[1]; [5],0.0433 (mg/kg)/(ng/ml)
same,bioavailability,"[1]; rat, blood, male Sprague Dawley rats, single bolus oral dose of 10 mg/kg, read-out: % F",47%
same,bioavailability,"[1]; rat, blood, read-out: oral bioavailability",~47%
same,AUC(0-t),[1]; [6],694 ng·h/mL
same,C0,[1]; [6],1560 ng/mL
same,half-life,[1]; [6],2.57 h
same,AUC,[1]; [6],769 ng·h/mL
same,Cmax,"[1]; rat, blood, male Sprague Dawley rats, single bolus intravenous dose of 2 mg/kg, read-out: Cmax (maximum blood concentration)",912 ng/mL
same,MRT,"[1]; rat, blood, male Sprague Dawley rats, single bolus intravenous dose of 2 mg/kg, read-out: MRT 0-infinity_observed",3.06 h
same,Tmax,"[1]; rat, blood, male Sprague Dawley rats, single bolus intravenous dose of 2 mg/kg, read-out: Tmax (time maximum blood conc.)",0.0333 h
same,AUC(0-t),[1]; [7],1720 ng·h/mL
same,half-life,[1]; [7],5.46 h
same,AUC,[1]; [7],1820 ng·h/mL
same,Cmax,"[1]; rat, blood, male Sprague Dawley rats, single bolus oral dose of 10 mg/kg, read-out: Cmax",206 ng/mL
same,MRT inf,"[1]; rat, blood, male Sprague Dawley rats, single bolus oral dose of 10 mg/kg, read-out: MRT 0-inf_obs",7.37 h
same,Tmax,"[1]; rat, blood, male Sprague Dawley rats, single bolus oral dose of 10 mg/kg, read-out: Tmax",2 h
same,Percent Survival,[2],100%
same,Percent Survival,[2]; listed as Formula I,100%
same,"Body Wt. % Δ from Baseline, Mean",[3],14.68%
same,"Body Wt. % Δ from Baseline, Median",[3],14.64%
same,"Change in Body Weight Day 1-30, Mean",[3],3.13
same,"Change in Body Weight Day 1-30, Median",[3],3.08
same,"Day 30 Body Weight, Mean",[3],24.37 g
same,"Day 30 Body Weight, Median",[3],24.12 g
same,Cell Count Activity Area,CHP-212,3.87
same,Relative cell count (%) Mean,CHP-212; 1.00E+00 microM,43.7%
same,Relative cell count (%) Mean,CHP-212; 1.00E-01 microM,47.0%
same,Relative cell count (%) Mean,CHP-212; 1.00E-02 microM,57.6%
same,Relative cell count (%) Mean,CHP-212; 1.00E-03 microM,59.5%
same,Relative cell count (%) Mean,CHP-212; 1.01E-04 microM,82.6%
same,Relative cell count (%) Mean,CHP-212; 3.16E-01 microM,46.9%
same,Relative cell count (%) Mean,CHP-212; 3.17E-02 microM,54.5%
same,Relative cell count (%) Mean,CHP-212; 3.17E-03 microM,59.2%
same,Relative cell count (%) Mean,CHP-212; 3.18E-04 microM,68.8%
same,Relative cell count (%) Mean,CHP-212; 3.18E-05 microM,93.4%
same,EC50,CHP-212,0.267 nM
same,GI50,CHP-212,0.349 nM
same,IC50,CHP-212,34 nM
same,Relative cell count (%) Mean,786-O; 1.00E+00 microM,36.7%
same,Relative cell count (%) Mean,786-O; 1.00E-01 microM,45.5%
same,Relative cell count (%) Mean,786-O; 1.00E-02 microM,55.7%
same,Relative cell count (%) Mean,786-O; 1.00E-03 microM,78.6%
same,Relative cell count (%) Mean,786-O; 1.01E-04 microM,92.0%
same,Relative cell count (%) Mean,786-O; 3.16E-01 microM,43.3%
same,Relative cell count (%) Mean,786-O; 3.17E-02 microM,48.2%
same,Relative cell count (%) Mean,786-O; 3.17E-03 microM,65.0%
same,Relative cell count (%) Mean,786-O; 3.18E-04 microM,80.1%
same,Relative cell count (%) Mean,786-O; 3.18E-05 microM,96.8%
same,Cell Count Activity Area,786-O,4.01
same,EC50,786-O,1.59 nM
same,GI50,786-O,7.1 nM
same,IC50,786-O,16.2 nM
same,Cell Count Activity Area,T24,4.16
same,Relative cell count (%) Mean,T24; 1.00E+00 microM,36.6%
same,Relative cell count (%) Mean,T24; 1.00E-01 microM,42.2%
same,Relative cell count (%) Mean,T24; 1.00E-02 microM,52.8%
same,Relative cell count (%) Mean,T24; 1.00E-03 microM,61.8%
same,Relative cell count (%) Mean,T24; 1.01E-04 microM,85.7%
same,Relative cell count (%) Mean,T24; 3.16E-01 microM,40.8%
same,Relative cell count (%) Mean,T24; 3.17E-02 microM,48.5%
same,Relative cell count (%) Mean,T24; 3.17E-03 microM,52.6%
same,Relative cell count (%) Mean,T24; 3.18E-04 microM,69.8%
same,Relative cell count (%) Mean,T24; 3.18E-05 microM,93.2%
same,EC50,T24,0.471 nM
same,GI50,T24,3.09 nM
same,IC50,T24,6.8 nM
same,TORC1/TORC2 Selectivity,TORC1,50x
same,"selectivity of mTORC1 vs mTORC2 inhibition compared with the polyketide disclosed in U.S. Pat. No. 9,382,266 (in words)",TORC1,less selectively
same,IC50,TORC1; Western blot,0.099 nM
"CO[C@H]1C[C@@H]2CC[C@@H](C)[C@@](O)(O2)C(=O)C(=O)N2CCCC[C@H]2C(=O)O[C@H]([C@H](C)C[C@@H]2CC[C@@H](O)[C@H](OC)C2)CC(=O)[C@H](C)/C=C(\C)[C@@H](O)[C@@H](OC)C(=O)[C@H](C)C[C@H](C)/C=C/C=C/C=C/1C [Rapamycin, reference compound]",Cell Count Activity Area,CHP-212,4.13
same,EC50,CHP-212,0.0376 nM
same,GI50,CHP-212,0.0707 nM
same,IC50,CHP-212,> 1000 nM
same,Cell Count Activity Area,786-O,4.17
same,EC50,786-O,0.227 nM
same,GI50,786-O,1.13 nM
same,IC50,786-O,3.18 nM
same,Cell Count Activity Area,T24,4.39
same,EC50,T24,0.0783 nM
same,GI50,T24,0.474 nM
same,IC50,T24,2.1 nM
"CN[C@@H]1C[C@H]2O[C@@](C)([C@@H]1OC)n1c3ccccc3c3c4c(c5c6ccccc6n2c5c31)C(=O)NC4 [Staurosporine, reference compound]",Cell Count Activity Area,CHP-212,4.80
same,GI50,CHP-212,2.59 nM
same,IC50,CHP-212,4.78 nM
same,Cell Count Activity Area,786-O,4.87
same,EC50,786-O,3.58 nM
same,GI50,786-O,3.41 nM
same,Cell Count Activity Area,T24,5.96
same,GI50,T24,0.829 nM
